Results reported in patent publication US12582619B2 (priority 2020, dated 2026).
“Also recorded” adds a separate entry of the source.

Legend:
SARS-CoV-2 [1] = experiment: Infection of Huh7.5 cells by replication competent SARS-CoV-2, qRT-PCR; format: cell-based; conditions: 10 μM, 24 hours post inoculation
Method: FIG. 3 illustrates the finding that only certain Sigma1 inhibitors block SARS-CoV-2 infection. […] Results can be compared to vehicle (DMSO), Remdesivir (Rem, 10 μM), and hydroxychloroquine (HCQ, 10 μM). Compounds and SARS-CoV-2 were added to cell culture; 24 hours post inoculation relative infection calculated by qRT-PCR.
A discrete set of Sigma1 modulators was tested in an assay of replication competent SARS-CoV-2 infectivity. […] Strikingly, IPAG, CT189, and CT1107 blocked SARS-CoV-2 infection by 1,000 (IPAG, CT189, CT360) to 10,000 (CT1107) fold.

Androgen Receptor [2] = molecular target: T1, Androgen Receptor (Homo sapiens, UniProt P10275)
T1 sequence (P10275 1-920): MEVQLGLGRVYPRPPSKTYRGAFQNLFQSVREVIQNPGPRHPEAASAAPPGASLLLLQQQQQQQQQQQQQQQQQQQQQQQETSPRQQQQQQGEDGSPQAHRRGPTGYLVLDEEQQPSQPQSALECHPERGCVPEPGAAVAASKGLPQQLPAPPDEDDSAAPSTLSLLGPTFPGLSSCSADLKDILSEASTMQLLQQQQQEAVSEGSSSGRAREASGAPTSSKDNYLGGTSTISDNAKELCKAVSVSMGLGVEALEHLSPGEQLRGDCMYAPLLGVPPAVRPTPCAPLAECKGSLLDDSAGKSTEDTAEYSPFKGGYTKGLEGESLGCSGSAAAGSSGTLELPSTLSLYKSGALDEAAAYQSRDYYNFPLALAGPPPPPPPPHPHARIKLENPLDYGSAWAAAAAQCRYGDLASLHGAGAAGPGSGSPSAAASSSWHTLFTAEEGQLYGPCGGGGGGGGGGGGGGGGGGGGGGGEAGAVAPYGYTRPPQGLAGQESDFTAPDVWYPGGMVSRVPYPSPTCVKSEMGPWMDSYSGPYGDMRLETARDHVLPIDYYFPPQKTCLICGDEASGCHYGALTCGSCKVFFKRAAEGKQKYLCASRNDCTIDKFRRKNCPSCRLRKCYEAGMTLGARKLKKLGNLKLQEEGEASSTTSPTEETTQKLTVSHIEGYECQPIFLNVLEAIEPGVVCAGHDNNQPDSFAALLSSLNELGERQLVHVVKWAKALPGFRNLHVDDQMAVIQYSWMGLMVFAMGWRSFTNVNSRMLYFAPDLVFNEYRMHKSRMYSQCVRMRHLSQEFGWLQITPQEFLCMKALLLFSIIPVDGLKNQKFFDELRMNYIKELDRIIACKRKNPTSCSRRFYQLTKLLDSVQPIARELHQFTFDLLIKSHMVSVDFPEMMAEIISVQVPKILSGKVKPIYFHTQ

Powassan Virus = format: cell-based; conditions: U2OS, MOI 1, ~16-18 hours; CT110 10 μM, CT1107 2.5-10 μM, FIG. 12
Zika Virus = experiment: Zika virus infection of U2OS cells, qPCR; format: cell-based; conditions: MOI 1, ~16-18 hours, CT110 10 μM, CT1107 2.5-10 μM, FIG. 11
Method: (§1) U2OS cells were treated with DMSO or 10 μM of CT110 (also known as CT189, left graph) or DMSO or 2.5 μM, 5 μM, 7.5 μM, and 10 μM CT1107 (right graph). 2 hours after starting treatment, U2OS cells were infected with a multiplicity of infection (MOI) of 1 for Zika Virus and incubated at 37° C. for ˜16-18 hours. Cells were harvested with Trizol and RNA was extracted for qPCR. Y-axis indicates fold change in infection.

Dengue Virus = experiment: Dengue virus infection of U2OS cells, qPCR; format: cell-based; conditions: MOI 1, ~16-18 hours, CT110 10 μM, CT1107 2.5-10 μM, FIG. 10
Method: as §1, with “Dengue” for “Zika”

Androgen Receptor [3] = molecular target: T1, Androgen Receptor; experiment: cell-based
Sigma1 = Sigma1 (Homo sapiens, UniProt Q99720); experiment: Sigma1 binding, Ki
Chain of Sigma1 (Q99720 whole entry): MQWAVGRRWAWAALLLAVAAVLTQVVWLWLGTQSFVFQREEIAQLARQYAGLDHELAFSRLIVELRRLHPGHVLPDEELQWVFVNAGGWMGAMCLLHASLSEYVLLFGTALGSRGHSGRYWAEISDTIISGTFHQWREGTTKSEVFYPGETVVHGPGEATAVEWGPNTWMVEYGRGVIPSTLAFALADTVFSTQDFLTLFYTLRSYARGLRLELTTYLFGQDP

SARS-CoV-2 [4] = experiment: SARS-CoV-2 infection of VeroE6/TMPRSS2 cells, qRT-PCR; format: cell-based; conditions: VeroE6/TMPRSS2 cells, 5, 7.5, 10 μM, 48 hours, FIG. 8
Method: (§2) FIG. 8 illustrates results obtained when VeroE6/TMPRSS2 or Caco2 cells were treated with DMSO or 5 μM, 7.5 μM, and 10 μM CT1107 and infected with SARS-CoV-2 for 48 hours. RNA was isolated and qRT-PCR was performed with virus-specific and 18S primers. Viral RNA was normalized to 18S RNA.
(§3) It was tested whether Sigma1-targeting compounds are antiviral in additional cell lines. VeroE6 cells stably expressing TMPRSS2and Caco-2 (human colorectal epithelial cells) were tested. […] In certain embodiments, these compounds are antiviral in primary respiratory epithelial cells.

human TMPRSS2 = format: cell-based; conditions: Vero E6 lysates, 10 μM, FIG. 7
[5] = tested on: Caco-2 (human colorectal epithelial cells); experiment: Toxicity in Caco-2 cells; format: cell-based; conditions: Caco-2 cells, 5, 7.5, 10 μM
Method: as §3

SARS-CoV-2 [6] = experiment: SARS-CoV-2 infection of Caco2 cells, qRT-PCR; format: cell-based; conditions: Caco2 cells, 5, 7.5, 10 μM, 48 hours, FIG. 8
Method: as §2, §3

[7] = tested on: VeroE6 cells stably expressing TMPRSS2; experiment: Toxicity in VeroE6/TMPRSS2 cells; format: cell-based; conditions: VeroE6/TMPRSS2 cells, 5, 7.5, 10 μM
Method: as §3

[8] = tested on: Vero E6 cells expressing SARS-CoV-2 spike and human TMPRSS2; format: cell-based; conditions: Vero E6, 10 μM vs DMSO
TMPRSS2 mRNA transcript = experiment: TMPRSS2 transcript levels in LNCaP cells; conditions: 10 μM, FIG. 1B

SMILES	effect on SARS-CoV-2 infection (in words) (SARS-CoV-2 [1]; FIG. 3)	IC50 (Androgen Receptor [3])	Ki (Sigma1)	further results
N=C(NCCCOc1ccc(F)cc1)Nc1ccc(Cl)cc1 [CT189]	suppressed SARS-CoV-2 infection; also recorded: inhibit SARS-CoV-2 infection	–	–	blocked SARS-CoV-2 infection, fold (SARS-CoV-2 [1]; FIG. 3): 1,000 fold; dihydrotesterone (DHT) induced AR transcriptional activity (Androgen Receptor [2]): inhibition; Powassan virus infection (fold change in infection) (Powassan Virus): inhibit Powassan virus infection; Zika virus infection (fold change in infection) (Zika Virus): inhibit Zika virus infection; Dengue virus infection (fold change in infection) (Dengue Virus): inhibit dengue virus infection
COc1cc(NC(=N)NCCC(C)(C)Oc2ccc(C(F)(F)F)cc2)cnc1C#N [Compound A, 1-(6-cyano-5-methoxypyridin-3-yl)-3-(3-methyl-3-(4-(trifluoromethyl)phenoxy)butyl)guanidine]	–	8100 nM	9 nM	–
COc1cc(NC(=N)NCC(C)(C)COc2ccc(C(F)(F)F)cc2)cnc1C#N [Compound B, 1-(6-cyano-5-methoxypyridin-3-yl)-3-(2,2-dimethyl-3-(4-(trifluoromethyl)phenoxy)propyl)guanidine]	–	10000 nM	6 nM	–
CC(C)(CCNC(=N)Nc1ccc(Cl)c(Cl)c1)Oc1ccc(C(F)(F)F)cc1 [Compound D, 1-(3,4-dichlorophenyl)-3-(3-methyl-3-(4-(trifluoromethyl)phenoxy)butyl)guanidine]	–	3000 nM	8 nM	–
CC(C)(CCNC(=N)Nc1cnc(Cl)c(F)c1)Oc1ccc(C(F)(F)F)cc1 [Compound E, 1-(6-chloro-5-fluoropyridin-3-yl)-3-(3-methyl-3-(4-(trifluoromethyl)phenoxy)butyl)guanidine]	–	5000 nM	5 nM	–
COc1cc(NC(=N)NCCC(C)(C)c2ccc(C(F)(F)F)cc2)ncc1C#N [Compound F, 1-(5-cyano-4-methoxypyridin-2-yl)-3-(3-methyl-3-(4-(trifluoromethyl)phenyl)butyl)guanidine]	–	3000 nM	11 nM	antiviral effect on SARS-CoV-2 (SARS-CoV-2 [4]): potently antiviral; blocked SARS-CoV-2 infection, fold (SARS-CoV-2 [1]; FIG. 3): 10,000 fold; effect on SARS-CoV-2 infection (in words) (SARS-CoV-2 [1]; FIG. 3, listed as CT1107): suppressed SARS-CoV-2 infection; also recorded: inhibit SARS-CoV-2 infection; also recorded: most potent inhibitor of CoV-2 infection; TMPRSS2 protein level (human TMPRSS2): clear decrease; toxicity [5]: without toxicity; Powassan virus infection (fold change in infection) (Powassan Virus): inhibit Powassan virus infection; Zika virus infection (fold change in infection) (Zika Virus): inhibit Zika virus infection; antiviral effect on SARS-CoV-2 (SARS-CoV-2 [6]): potently antiviral; toxicity [7]: without toxicity; Dengue virus infection (fold change in infection) (Dengue Virus): inhibit dengue virus infection; number of syncytia ([8]; FIG. 5): significant decrease; size of syncytia (number of nuclei per syncytia) ([8]; FIG. 6): significant decrease
COC(=O)c1ccc(NC(=N)NCCC(C)(C)c2ccc(C(F)(F)F)cc2)nc1 [Compound G, methyl 6-(3-(3-methyl-3-(4-(trifluoromethyl)phenyl)butyl)guanidino)nicotinate]	–	2800 nM	3 nM	–
COC(=O)c1ccc(NC(=N)NCC(C)(C)COc2ccc(C(F)(F)F)cc2)nc1 [Compound H, methyl 6-(3-(2,2-dimethyl-3-(4-(trifluoromethyl)phenoxy)propyl)guanidino)nicotinate]	inhibit SARS-CoV-2 infection	2900 nM	18 nM	blocked SARS-CoV-2 infection, fold (SARS-CoV-2 [1]; FIG. 3): 1,000 fold
CC(C)(CCNC(=N)Nc1cnc(C(F)(F)F)nc1)Oc1ccc(C(F)(F)F)cc1 [Compound I, 1-(3-methyl-3-(4-(trifluoromethyl)phenoxy)butyl)-3-(2-(trifluoromethyl)pyrimidin-5-yl)guanidine]	–	10500 nM	35 nM	–
COc1cc(NC(=N)NCCC(C)(C)Oc2ccc(C(F)(F)F)cc2)cnc1C#N [Compound J, 1-(6-cyano-5-methoxypyridin-3-yl)-3-(3-methyl-3-(4-(trifluoromethyl)phenoxy)butyl)guanidine]	–	8500 nM	7 nM	–
Cc1cc(OCCN2CCOCC2)nn1-c1ccc2ccccc2c1 [Compound S1RA, 4-[2-[[5-methyl-1-(2-naphthalenyl)-1H-pyrazol-3-yl]oxy]ethyl]morpholine, reference compound]	did not block infection; also recorded: does not block infection	–	–	–
N=C(Nc1ccc(I)cc1)NC1C2CC3CC(C2)CC1C3 (centres unmarked) [IPAG, reference compound]	suppressed SARS-CoV-2 infection; also recorded: inhibit SARS-CoV-2 infection	–	–	blocked SARS-CoV-2 infection, fold (SARS-CoV-2 [1]; FIG. 3): 1,000 fold; dihydrotesterone (DHT) induced AR transcriptional activity (Androgen Receptor [2]): inhibition; TMPRSS2 transcript (TMPRSS2 mRNA transcript): decreased
O=C(OCCN1CCOCC1)C1(c2ccccc2)CCCCC1 [PRE084, 2-morpholin-4-ylethyl 1-phenylcyclohexane-1-carboxylate, reference compound]	did not block infection	–	–	–
COc1ccc(CCN2CCN(CCCc3ccccc3)CC2)cc1OC [SA4503, 1-(3,4-dimethoxyphenethyl)-4-(3-phenylpropyl) piperazine, reference compound]	did not block infection	–	–	–
O=C(CCCN1CCC(O)(c2ccc(Cl)cc2)CC1)c1ccc(F)cc1 [haloperidol, 4-[4-(4-chlorophenyl)-4-hydroxypiperidin-1-yl]-1-(4-fluorophenyl)butan-1-one, reference compound]	suppressed SARS-CoV-2 infection	–	–	effect on SARS-CoV-2 infection (in words) (SARS-CoV-2 [1]; FIG. 3, listed as Haloperidol): clear but modest antiviral effect
